According to patent US20190275027A1 (priority 2018, published 2019):

Target: L-type channel CaV1.2 (UniProt P15381)
Sequence (P15381 whole entry, looked up): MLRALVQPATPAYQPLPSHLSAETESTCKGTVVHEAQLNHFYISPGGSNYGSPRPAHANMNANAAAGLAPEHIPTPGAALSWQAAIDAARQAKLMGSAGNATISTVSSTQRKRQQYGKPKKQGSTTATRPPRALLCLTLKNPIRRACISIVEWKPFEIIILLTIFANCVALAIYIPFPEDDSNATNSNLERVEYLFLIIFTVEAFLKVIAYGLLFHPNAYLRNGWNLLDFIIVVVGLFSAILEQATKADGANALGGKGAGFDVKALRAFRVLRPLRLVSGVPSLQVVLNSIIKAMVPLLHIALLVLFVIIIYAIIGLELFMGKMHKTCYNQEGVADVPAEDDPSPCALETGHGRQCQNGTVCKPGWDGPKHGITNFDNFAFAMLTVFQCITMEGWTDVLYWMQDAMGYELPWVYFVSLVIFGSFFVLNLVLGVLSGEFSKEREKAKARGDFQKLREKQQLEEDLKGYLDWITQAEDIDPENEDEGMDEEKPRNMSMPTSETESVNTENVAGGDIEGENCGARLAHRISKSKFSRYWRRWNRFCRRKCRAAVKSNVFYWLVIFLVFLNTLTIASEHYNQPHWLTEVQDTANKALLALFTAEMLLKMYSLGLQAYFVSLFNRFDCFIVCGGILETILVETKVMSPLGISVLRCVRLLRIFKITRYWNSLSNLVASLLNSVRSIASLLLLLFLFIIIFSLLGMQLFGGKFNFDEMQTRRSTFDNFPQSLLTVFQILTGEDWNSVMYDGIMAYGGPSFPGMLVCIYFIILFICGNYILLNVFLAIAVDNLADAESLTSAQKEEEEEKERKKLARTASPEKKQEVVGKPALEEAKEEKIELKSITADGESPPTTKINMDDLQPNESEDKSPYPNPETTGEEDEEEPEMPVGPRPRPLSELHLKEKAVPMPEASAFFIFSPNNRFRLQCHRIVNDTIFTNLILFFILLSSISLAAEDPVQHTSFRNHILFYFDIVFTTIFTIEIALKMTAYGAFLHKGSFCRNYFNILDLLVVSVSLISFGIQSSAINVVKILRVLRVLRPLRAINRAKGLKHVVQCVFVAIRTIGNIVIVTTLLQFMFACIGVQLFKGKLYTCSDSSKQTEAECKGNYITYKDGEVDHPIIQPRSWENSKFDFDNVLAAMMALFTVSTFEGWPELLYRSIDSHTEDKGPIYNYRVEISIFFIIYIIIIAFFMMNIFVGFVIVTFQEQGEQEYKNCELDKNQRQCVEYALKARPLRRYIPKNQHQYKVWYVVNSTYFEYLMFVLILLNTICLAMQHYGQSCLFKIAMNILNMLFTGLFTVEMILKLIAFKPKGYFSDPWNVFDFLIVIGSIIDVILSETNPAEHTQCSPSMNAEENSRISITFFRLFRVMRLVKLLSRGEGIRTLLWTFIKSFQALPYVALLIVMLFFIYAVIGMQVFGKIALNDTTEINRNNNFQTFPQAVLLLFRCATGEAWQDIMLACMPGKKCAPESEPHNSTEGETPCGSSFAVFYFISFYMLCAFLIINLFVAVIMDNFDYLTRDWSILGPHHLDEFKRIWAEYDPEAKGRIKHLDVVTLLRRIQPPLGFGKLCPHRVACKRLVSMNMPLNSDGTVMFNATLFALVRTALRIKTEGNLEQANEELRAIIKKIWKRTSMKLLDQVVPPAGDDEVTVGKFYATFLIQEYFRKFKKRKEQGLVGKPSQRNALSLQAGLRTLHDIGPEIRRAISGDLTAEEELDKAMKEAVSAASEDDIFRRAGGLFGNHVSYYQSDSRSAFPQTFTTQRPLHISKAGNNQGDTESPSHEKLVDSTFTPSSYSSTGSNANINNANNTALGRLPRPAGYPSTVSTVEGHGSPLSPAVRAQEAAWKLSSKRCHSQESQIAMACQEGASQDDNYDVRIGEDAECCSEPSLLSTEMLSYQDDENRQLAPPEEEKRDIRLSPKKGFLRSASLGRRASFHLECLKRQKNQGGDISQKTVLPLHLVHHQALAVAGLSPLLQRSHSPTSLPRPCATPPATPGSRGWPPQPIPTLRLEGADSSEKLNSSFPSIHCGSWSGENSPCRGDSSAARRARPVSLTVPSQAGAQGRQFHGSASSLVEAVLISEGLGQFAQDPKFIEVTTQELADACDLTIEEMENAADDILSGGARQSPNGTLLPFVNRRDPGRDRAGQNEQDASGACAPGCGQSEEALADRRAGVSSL

COc1ccc2cc1Oc1ccc(cc1)C[C@H]1c3cc(c(OC)cc3CCN1C)Oc1c(OC)c(OC)cc3c1[C@H](C2)N(C)CC3 [TETN, tetrandrine, reference compound] was tested, and the “L-Activity IC50” value was 46.80 ± 10.84 µM.
